Test [1] has as its target T1, [SALL4 ZF2]-[compound]-[CRBN/DDB1] ternary complex (Homo sapiens, UniProt Q96SW2+Q9UJQ4).
T1 construct: SALL4 ZF2
In words: AlphaLISA assay for off-target recruitment detection, SALL4 ZF2. Conditions: 1 μM compound; normalized to Lenalidomide; read-out: Normalized ternary complex response, SALL4 ZF2. Format: binding. An outline of the steps: (§1)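 Neo-substrate with 40 μg/ml donor beads and 200 nM 6×His-CRBN/DDB1 with 40 μg/ml anti-His acceptor beads were each prepared in PBS pH 7.4 with Tween-20 and 1 mM DTT, preincubated 30 min at RT, then mixed. Compounds at 2% DMSO were incubated 30 min at 25 °C, read at 680/615 nm, and normalised between DMSO background and reference glue maximum.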
(Alpha assays give light when donor and acceptor beads are brought close together.)

Test [2] addresses T2, [IKZF2 ZF2]-[compound]-[CRBN/DDB1] ternary complex (Homo sapiens, UniProt Q96SW2+Q9UKS7).
T2 construct: IKZF2 ZF2
The test is described as follows: AlphaLISA assay for off-target recruitment detection, IKZF2 ZF2. The format is binding. Conditions: 1 μM compound; normalized to Helios modulator; read-out: Normalized ternary complex response, IKZF2 ZF2. An outline of the steps:
as §1

Test [3] has as its target [GSPT1]-[compound of formula (I)]-[CRBN/DDB1] complex (Homo sapiens, UniProt P15170+Q96SW2). The test is described as follows: AlphaLISA ternary complex formation assay (GSPT1). The format is binding. Conditions: 0.5 h; 1 μM compound; normalized to reference compound CC-885; read-out: Normalized AlphaLISA ternary complex average signal at 1 μM molecule. The method, boiled down: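 Biotinylated GSPT1 on streptavidin donor beads and 6×His-CRBN/DDB1 on anti-His acceptor beads (each 200 nM before mixing) in HBS pH 7.4 with 0.1% Tween-20 and 1 mM DTT, 2% DMSO final, 30 min at 25 °C. AlphaLISA luminescence is normalized between DMSO background and the reference compound's maximum.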

Test [4] deals with [CK1α]-[compound]-[CRBN/DDB1] ternary complex (Homo sapiens, UniProt P48729+Q96SW2). The test is described as follows: AlphaLISA assay for off-target recruitment detection, CK1α. Format: binding. Conditions: 1 μM compound; normalized to FPFT-2216; read-out: Normalized ternary complex response, CK1α. The method, boiled down:
as §1

The target in test [5] is T3, [IKZF1 ZF2]-[compound]-[CRBN/DDB1] ternary complex (Homo sapiens, UniProt Q13422+Q96SW2).
T3 construct: IKZF1 ZF2
T3 sequence (Q13422 145-167 limits assumed): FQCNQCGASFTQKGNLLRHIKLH
T3 sequence (Q96SW2 whole entry): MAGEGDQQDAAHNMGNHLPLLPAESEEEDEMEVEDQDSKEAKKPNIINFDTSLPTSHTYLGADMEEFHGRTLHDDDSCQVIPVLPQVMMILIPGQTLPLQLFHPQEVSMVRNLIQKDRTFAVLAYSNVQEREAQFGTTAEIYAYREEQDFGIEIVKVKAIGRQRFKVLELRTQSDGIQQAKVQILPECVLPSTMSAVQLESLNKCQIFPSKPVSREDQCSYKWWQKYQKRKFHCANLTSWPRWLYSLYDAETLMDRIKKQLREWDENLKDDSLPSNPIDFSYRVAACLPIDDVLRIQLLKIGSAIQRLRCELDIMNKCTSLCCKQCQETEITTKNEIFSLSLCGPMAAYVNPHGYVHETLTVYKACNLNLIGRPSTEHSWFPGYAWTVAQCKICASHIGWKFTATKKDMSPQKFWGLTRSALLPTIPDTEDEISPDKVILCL
T3 sequence (Q16531 whole entry partner): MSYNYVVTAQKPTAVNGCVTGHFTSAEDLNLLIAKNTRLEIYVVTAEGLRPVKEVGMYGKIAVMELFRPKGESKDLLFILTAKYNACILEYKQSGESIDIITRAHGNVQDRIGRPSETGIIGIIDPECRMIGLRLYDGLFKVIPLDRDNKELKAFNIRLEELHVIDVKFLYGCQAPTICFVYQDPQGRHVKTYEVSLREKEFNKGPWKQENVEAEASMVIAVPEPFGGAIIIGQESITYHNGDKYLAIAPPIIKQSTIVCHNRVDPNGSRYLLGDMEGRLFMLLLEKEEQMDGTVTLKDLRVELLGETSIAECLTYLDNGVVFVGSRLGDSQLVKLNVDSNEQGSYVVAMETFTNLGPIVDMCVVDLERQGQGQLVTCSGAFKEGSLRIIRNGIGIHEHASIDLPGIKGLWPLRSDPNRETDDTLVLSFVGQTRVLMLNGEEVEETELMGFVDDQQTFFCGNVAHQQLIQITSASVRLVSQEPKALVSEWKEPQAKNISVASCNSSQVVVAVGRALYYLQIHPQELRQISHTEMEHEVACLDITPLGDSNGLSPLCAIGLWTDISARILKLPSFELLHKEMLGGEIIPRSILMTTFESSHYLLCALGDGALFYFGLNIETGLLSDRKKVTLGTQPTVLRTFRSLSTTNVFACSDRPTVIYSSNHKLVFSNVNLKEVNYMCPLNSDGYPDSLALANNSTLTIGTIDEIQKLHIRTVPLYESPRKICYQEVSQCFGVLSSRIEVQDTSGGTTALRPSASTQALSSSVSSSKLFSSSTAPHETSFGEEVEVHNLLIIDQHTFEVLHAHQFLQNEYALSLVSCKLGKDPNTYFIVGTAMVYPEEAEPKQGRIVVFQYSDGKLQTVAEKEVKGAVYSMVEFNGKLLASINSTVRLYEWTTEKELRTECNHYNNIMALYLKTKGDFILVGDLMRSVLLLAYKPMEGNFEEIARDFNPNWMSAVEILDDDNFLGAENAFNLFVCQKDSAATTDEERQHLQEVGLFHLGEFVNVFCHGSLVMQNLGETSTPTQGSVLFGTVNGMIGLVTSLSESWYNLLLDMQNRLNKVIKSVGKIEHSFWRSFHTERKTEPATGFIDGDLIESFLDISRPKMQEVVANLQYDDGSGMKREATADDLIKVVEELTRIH
The test is described as follows: AlphaLISA assay for off-target recruitment detection, IKZF1 ZF2. Format: binding. Conditions: 1 μM compound; normalized to Lenalidomide; read-out: Normalized ternary complex response, IKZF1 ZF2. The method, boiled down:
as §1

The target in test [6] is CRBN/DDB1 protein complex (Homo sapiens, UniProt Q96SW2). In words: CRBN displacement TR-FRET assay. Conditions: Thalidomide-Red tracer, 6×His-CRBN/DDB1; read-out: CRBN binding Ki. The method, boiled down:
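Test compound at various concentrations competed with 6.8 nM Thalidomide-Red tracer for 5 nM 6×His-CRBN/DDB1, detected with 0.5 nM anti-His-Eu cryptate in buffer with 1 mM DTT and 1% DMSO. Incubation ran 180 min at room temperature with a time-resolved fluorescence read-out. IC50 values were converted to Ki by Cheng–Prusoff using tracer Kd and protein and tracer concentrations.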

The term pKi denotes the negative decadic logarithm of the Ki, by convention in mol/L.

pKi: −log10 of the molar value.

Chain of [GSPT1]-[compound of formula (I)]-[CRBN/DDB1] complex (P15170 whole entry): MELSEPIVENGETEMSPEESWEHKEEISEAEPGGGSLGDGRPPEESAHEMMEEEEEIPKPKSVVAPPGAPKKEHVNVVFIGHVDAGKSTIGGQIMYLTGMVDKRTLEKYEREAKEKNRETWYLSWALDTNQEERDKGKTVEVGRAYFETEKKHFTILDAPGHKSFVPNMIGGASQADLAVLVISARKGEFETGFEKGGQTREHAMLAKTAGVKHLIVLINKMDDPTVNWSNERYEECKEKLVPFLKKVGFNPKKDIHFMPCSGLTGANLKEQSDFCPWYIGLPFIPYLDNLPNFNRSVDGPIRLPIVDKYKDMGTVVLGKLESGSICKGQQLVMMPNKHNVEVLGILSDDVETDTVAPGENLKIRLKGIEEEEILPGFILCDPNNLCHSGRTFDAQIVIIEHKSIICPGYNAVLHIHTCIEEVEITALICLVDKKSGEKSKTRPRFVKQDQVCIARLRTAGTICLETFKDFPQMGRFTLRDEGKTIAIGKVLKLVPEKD
Chain of [GSPT1]-[compound of formula (I)]-[CRBN/DDB1] complex (Q96SW2 whole entry): as the sequence (Q96SW2 whole entry) above
Chain of [GSPT1]-[compound of formula (I)]-[CRBN/DDB1] complex (Q16531 whole entry partner): as the sequence (Q16531 whole entry partner) above
Chain of CRBN/DDB1 protein complex (Q96SW2 whole entry, species assumed): as the sequence (Q96SW2 whole entry) above
Chain of CRBN/DDB1 protein complex (Q16531 whole entry partner, species assumed): as the sequence (Q16531 whole entry partner) above
T2 sequence (Q9UKS7 140-162 limits assumed): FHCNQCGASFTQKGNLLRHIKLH
T2 sequence (Q96SW2 whole entry): as the sequence (Q96SW2 whole entry) above
T2 sequence (Q16531 whole entry partner): as the sequence (Q16531 whole entry partner) above
Chain of [CK1α]-[compound]-[CRBN/DDB1] ternary complex (P48729 whole entry): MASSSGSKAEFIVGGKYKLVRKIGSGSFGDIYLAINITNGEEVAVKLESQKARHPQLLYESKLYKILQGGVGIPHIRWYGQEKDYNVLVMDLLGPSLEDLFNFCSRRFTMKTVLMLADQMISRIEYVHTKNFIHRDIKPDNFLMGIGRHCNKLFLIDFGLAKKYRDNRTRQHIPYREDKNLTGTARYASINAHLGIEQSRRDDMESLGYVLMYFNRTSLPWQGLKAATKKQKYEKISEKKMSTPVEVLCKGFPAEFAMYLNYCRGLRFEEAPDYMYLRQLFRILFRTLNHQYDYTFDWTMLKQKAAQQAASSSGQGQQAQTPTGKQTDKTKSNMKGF
Chain of [CK1α]-[compound]-[CRBN/DDB1] ternary complex (Q96SW2 whole entry): as the sequence (Q96SW2 whole entry) above
Chain of [CK1α]-[compound]-[CRBN/DDB1] ternary complex (Q16531 whole entry partner): as the sequence (Q16531 whole entry partner) above
T1 sequence (Q9UJQ4 410-432 limits assumed): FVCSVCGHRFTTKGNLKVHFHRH
T1 sequence (Q96SW2 whole entry): as the sequence (Q96SW2 whole entry) above
T1 sequence (Q16531 whole entry partner): as the sequence (Q16531 whole entry partner) above

Take `Cc1nc2cc(COC(=O)Nc3cc(C(C)(C)C)n[nH]3)ccc2cc1C1CCC(=O)NC1=O` (stereo not drawn) [Compound 75, (3-(2,6-dioxopiperidin-3-yl)-2-methylquinolin-7-yl)methyl (3-(tert-butyl)-1H-pyrazol-5-yl)carbamate]: the activation at 1 µM in test [1] was below 10%; in test [2], below 10%; in test [3], above 50%; in test [4], below 10%; in test [5], below 10%. Further, the negative logarithm of the Ki (pKi) in test [6] was below 6.00.
Take `Cc1nc2cc(COC(=O)Nc3nc(C(C)(C)C)no3)ccc2cc1C1CCC(=O)NC1=O` (stereo not drawn) [Compound 80, (3-(2,6-dioxopiperidin-3-yl)-2-methylquinolin-7-yl)methyl (3-(tert-butyl)-1,2,4-oxadiazol-5-yl)carbamate]: the activation at 1 µM in test [1] is below 10%; in test [2], below 10%; in test [3] it was above 50%; in test [4], below 10%; in test [5], below 10%. Besides, the pKi in test [6] was 6.00 to 6.30.
Take `Cc1nc2cc(COC(=O)Nc3cc(C4(C(F)(F)F)CC4)no3)ccc2cc1C1CCC(=O)NC1=O` (stereo not drawn) [Compound 81, (3-(2,6-dioxopiperidin-3-yl)-2-methylquinolin-7-yl)methyl (3-(1-(trifluoromethyl)cyclopropyl)isoxazol-5-yl)carbamate]: the activation at 1 µM in test [1] was below 10%; in test [2] it was below 10%; in test [3], above 50%; in test [4] it was below 10%; in test [5] it was below 10%. Moreover, the pKi in test [6] is above 6.30.
For `[2H]C([2H])(OC(=O)Nc1cc(C(C)(C)C)no1)c1ccc2cc(C3CCC(=O)NC3=O)c(C)nc2c1` (stereo not drawn) [Compound 82, (3-(2,6-dioxopiperidin-3-yl)-2-methylquinolin-7-yl)methyl-d2 (3-(tert-butyl)isoxazol-5-yl)carbamate], the activation at 1 µM in test [1] was below 10%; in test [2] it was below 10%; in test [3] it was above 50%; in test [4] it was below 10%; in test [5], below 10%. For the same compound, in test [6], the pKi was above 6.30.

(Values after patent US20260232682A1, “GSPT1 DEGRADER COMPOUNDS” (Captor Therapeutics S.A., priority 2023, published 2026).)
